Our source for the melting point values is US6767918B2, “N-(aryl/heteroarylacetyl) amino acid esters, pharmaceutical compositions comprising same, and methods for inhibiting β-amyloid peptide release and/or its synthesis by use of such compounds” (Athena Neurosciences, Inc., priority 1996, dated 2004).

One may read the melting point as the temperature of the solid-liquid transition.

Molecules are shown by their SMILES.

As to `Cc1ccc(CC(=O)NC(C)C(=O)OCC(C)C)cc1` (racemic) [Example 6, N-[(4-methylphenyl)acetyl]-D,L-alanine iso-butyl ester], the melting point is 102 to 104 °C.

`CC(C)COC(=O)C(C)NC(=O)Cc1cccnc1` (racemic) [Example 7, N-[(3-pyridyl)acetyl]-D,L-alanine iso-butyl ester] had a melting point of 62 to 64 °C.

As to `CC(C)COC(=O)C(C)NC(=O)Cc1ccncc1` (racemic) [Example 12, N-[(4-pyridyl)acetyl]-D,L-alanine iso-butyl ester], the melting point was in the range of 64 to 66 °C.

The compound `CC(C)COC(=O)[C@H](C)NC(=O)Cc1ccc(Cl)cc1` [Example 4, N-[(4-chlorophenyl)acetyl]-L-alanine iso-butyl ester] showed a melting point of 111 to 113 °C.

As for `CC(C)COC(=O)[C@H](C)NC(=O)Cc1ccc(Cl)c(Cl)c1` [Example 5, N-[(3,4-dichlorophenyl)acetyl]-L-alanine iso-butyl ester], the melting point fell in the range of 81 to 83 °C.

For the compound `CC(C)COC(=O)[C@H](C)NC(=O)Cc1cccc2ccccc12` [Example 8, N-[(1-naphthyl)acetyl]-L-alanine iso-butyl ester], the melting point fell in the range of 69 to 73 °C.

`CC(C)COC(=O)[C@H](C)NC(=O)Cc1ccc2ccccc2c1` [Example 9, N-[(2-naphthyl)acetyl]-L-alanine iso-butyl ester] returned a melting point of 128 to 129 °C.

Compound `CC(C)COC(=O)[C@H](C)NC(=O)Cc1ccccc1` [Example 13, N-(phenylacetyl)-L-alanine iso-butyl ester] showed a melting point of 45 to 47 °C.

In the case of `CCOC(=O)[C@H](C)NC(=O)Cc1cc(F)cc(F)c1` [Example 64, N-[(3,5difluorophenyl)acetyl]alanine ethyl ester], the melting point is 93 to 95 °C.

Take `CC(C)COC(=O)[C@H](C)NC(=O)CC1CCCCC1` [Example 70, N-(cyclohexylacetyl)-L-alanine iso-butyl ester]: the melting point lay in the range of 92 to 93 °C.

Regarding `CC(C)COC(=O)[C@H](C)NC(=O)CC1CCCC1` [Example 71, N-(cyclopentylacetyl)-L-alanine iso-butyl ester], the melting point is 62 to 64 °C.

In turn, `CC(C)COC(=O)[C@H](C)NC(=O)CC1=CCCCC1` [Example 72, N-[(cyclohex-1-enyl)acetyl]-L-alanine iso-butyl ester] returned a melting point of 49 to 51 °C.
